# System: GH-secretion
# Test: GH-secretion inhibiting test: depression of serum GH-levels in the rat (radio-immuno-assay)
# Format: in vivo
# Conditions: male rats, s.c.
# Experimental: This test is carried out employing male rats. The test-substance is administered at varying, logarithmically staggered doses employing at least 5 rats per dose. 1, 6 and 18 hours after the administration of the test substance blood is taken. The determination of the serum GH-level is effected by radio-immuno-assay. The compounds of formula I are active in this test when administered at a dosage in the range of from 0.01 to 50 μg/kg s.c.
smiles,measurement,setting,value
"C[C@H](N)C(=O)NCC(=O)N[C@H]1CSSC[C@@H](C(=O)O)NC(=O)[C@H](CO)NC(=O)[C@H]([C@@H](C)O)NC(=O)[C@H](Cc2ccccc2)NC(=O)[C@H]([C@@H](C)O)NC(=O)[C@H](CCCCN)NC(=O)[C@H](Cc2c[nH]c3ccccc23)NC(=O)[C@H](Cc2ccccc2)NC(=O)[C@H](Cc2ccccc2)NC(=O)[C@H](CC(N)=O)NC(=O)[C@H](CCCCN)NC1=O [natural somatostatine, somatostatine]",ID50 in the GH-secretion inhibiting test after 1 hour,blood taken 1 hour after administration,0.95 mg/kg
same,ID50 in the GH-secretion inhibiting test after 6 hours,blood taken 6 hours after administration,extremely high and therefore not determinable
